Source: ChEMBL document CHEMBL4725370, “Discovery of Proteolysis-Targeting Chimera Molecules that Selectively Degrade the IRAK3 Pseudokinase” (J Med Chem, 2020)
Calls of active or inactive are those of the source. The calls are words filed in the database; no cut-off is given here.

Columns and labels:
[1] = target: T1, Protein cereblon/Interleukin-1 receptor-associated kinase 3 (Homo sapiens, UniProt Q9Y616+Q96SW2); test: Protac activity at CRBN/IRAK3 in human PBMC derived primary macrophages assessed as induction of IRAK3 degradation at 0.3 uM measured after 8 to 32 hrs by Western blot analysis; assay type: tissue-based; conditions: Primary macrophage, time hrs 8-32
Target sequence in this assay (Q96SW2 whole entry, looked up, one chain of several): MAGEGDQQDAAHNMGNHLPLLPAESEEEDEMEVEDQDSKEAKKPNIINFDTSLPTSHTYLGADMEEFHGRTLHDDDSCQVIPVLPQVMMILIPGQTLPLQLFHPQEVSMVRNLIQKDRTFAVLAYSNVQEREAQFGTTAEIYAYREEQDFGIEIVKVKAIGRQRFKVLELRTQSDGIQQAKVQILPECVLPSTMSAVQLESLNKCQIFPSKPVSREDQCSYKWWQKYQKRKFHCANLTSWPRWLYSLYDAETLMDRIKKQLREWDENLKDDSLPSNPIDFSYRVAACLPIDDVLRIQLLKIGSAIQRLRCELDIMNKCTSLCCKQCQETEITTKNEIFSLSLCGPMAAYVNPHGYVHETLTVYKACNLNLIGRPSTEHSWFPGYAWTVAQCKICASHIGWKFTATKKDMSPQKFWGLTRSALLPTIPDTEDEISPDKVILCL

[2] = target: T2, Interleukin-1 receptor-associated kinase 4 (Homo sapiens, UniProt Q9NWZ3); test: Inhibition of recombinant human full-length His-tagged IRAK4 expressed in baculovirus expression system using 5-FAM-IPTSPITTTYFFFKKK-COOH as substrate measured after 240 mins by mobility shift assay
T2 sequence (Q9NWZ3 whole entry): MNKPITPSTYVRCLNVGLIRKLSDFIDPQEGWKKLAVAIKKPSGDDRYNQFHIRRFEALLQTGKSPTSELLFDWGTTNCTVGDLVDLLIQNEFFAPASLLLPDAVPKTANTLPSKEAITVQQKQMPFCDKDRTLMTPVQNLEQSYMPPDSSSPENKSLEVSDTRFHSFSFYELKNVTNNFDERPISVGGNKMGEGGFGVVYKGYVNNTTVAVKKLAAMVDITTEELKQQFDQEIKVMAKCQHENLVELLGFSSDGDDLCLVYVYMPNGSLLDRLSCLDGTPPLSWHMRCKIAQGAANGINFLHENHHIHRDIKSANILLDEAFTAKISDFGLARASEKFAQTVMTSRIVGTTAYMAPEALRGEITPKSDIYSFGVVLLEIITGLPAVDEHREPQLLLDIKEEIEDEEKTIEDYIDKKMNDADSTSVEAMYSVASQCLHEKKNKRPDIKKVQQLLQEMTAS

[3] = target: Protein cereblon (Homo sapiens, UniProt Q96SW2); test: Inhibition of CRBN (unknown origin)
Chain of Protein cereblon (Q96SW2 whole entry): as the sequence (Q96SW2 whole entry, looked up, one chain of several) above

[4] = Octanol/buffer partition coefficient, log D of the compound at pH 7.4 by shake-flask method; assay type: physicochemical
[5] = target: T1, Protein cereblon/Interleukin-1 receptor-associated kinase 3; test: Protac activity at CRBN/IRAK3 in human PBMC derived primary macrophages assessed as induction of IRAK3 degradation at 0.3 uM preincubated for 8 hrs followed by LPS-stimulation and measured after 8 to 32 hrs by Western blot analysis; assay type: tissue-based; conditions: Primary macrophage
Target sequence in this assay (Q96SW2 whole entry, looked up, one chain of several): as the sequence (Q96SW2 whole entry, looked up, one chain of several) above

[6] = target: T1, Protein cereblon/Interleukin-1 receptor-associated kinase 3; test: Protac activity at CRBN/IRAK3 in human THP1 cells assessed as induction of IRAK3 degradation at 0.1 to 10 uM measured after 24 hrs by Western blot analysis; assay type: cell-based; conditions: THP-1, dose microM 0.1-10, time […]
Target sequence in this assay (Q96SW2 whole entry, looked up, one chain of several): as the sequence (Q96SW2 whole entry, looked up, one chain of several) above

[7] = target: T1, Protein cereblon/Interleukin-1 receptor-associated kinase 3; test: Protac activity at CRBN/IRAK3 in LPS-induced human THP1 cells assessed as induction of IRAK3 degradation after 16 hrs by Western blot analysis; assay type: cell-based; conditions: thp-1
Target sequence in this assay (Q96SW2 whole entry, one chain of several): as the sequence (Q96SW2 whole entry, looked up, one chain of several) above

[8] = target: T3, Interleukin-1 receptor-associated kinase 3 (Homo sapiens, UniProt Q9Y616); test: Inhibition of kinase tracer 236 binding to recombinant human full-length GST-tagged IRAK3 expressed in insect cells by Lanthascreen Eu kinase binding assay
T3 sequence (Q9Y616 whole entry): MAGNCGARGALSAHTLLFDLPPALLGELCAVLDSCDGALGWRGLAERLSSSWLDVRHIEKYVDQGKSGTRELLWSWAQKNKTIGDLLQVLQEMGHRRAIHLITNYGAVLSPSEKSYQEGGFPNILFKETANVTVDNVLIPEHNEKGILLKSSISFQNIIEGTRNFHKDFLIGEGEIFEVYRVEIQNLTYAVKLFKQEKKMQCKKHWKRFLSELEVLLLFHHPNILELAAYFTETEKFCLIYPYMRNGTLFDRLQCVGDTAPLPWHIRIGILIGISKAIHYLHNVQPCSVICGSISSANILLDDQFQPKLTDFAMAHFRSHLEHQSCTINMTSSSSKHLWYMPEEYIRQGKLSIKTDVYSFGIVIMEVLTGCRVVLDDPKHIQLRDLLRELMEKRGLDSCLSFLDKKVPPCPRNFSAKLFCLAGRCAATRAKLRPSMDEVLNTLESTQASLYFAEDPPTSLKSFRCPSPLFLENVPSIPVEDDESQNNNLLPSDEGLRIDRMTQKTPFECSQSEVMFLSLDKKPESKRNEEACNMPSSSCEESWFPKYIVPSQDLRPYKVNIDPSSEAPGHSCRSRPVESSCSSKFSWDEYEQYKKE

[9] = target: Interleukin-1 receptor-associated kinase 1 (Homo sapiens, UniProt P51617); test: Inhibition of recombinant human N-terminal GST-tagged IRAK1 (194 to 712 residues) expressed in baculovirus expression system using 5-FAM-KKKVSRSGLYRSPSMPENLNRPR-COOH as substrate measured after 240 mins by mobility shift assay
Chain of Interleukin-1 receptor-associated kinase 1 (P51617 whole entry, the tested form may be a part): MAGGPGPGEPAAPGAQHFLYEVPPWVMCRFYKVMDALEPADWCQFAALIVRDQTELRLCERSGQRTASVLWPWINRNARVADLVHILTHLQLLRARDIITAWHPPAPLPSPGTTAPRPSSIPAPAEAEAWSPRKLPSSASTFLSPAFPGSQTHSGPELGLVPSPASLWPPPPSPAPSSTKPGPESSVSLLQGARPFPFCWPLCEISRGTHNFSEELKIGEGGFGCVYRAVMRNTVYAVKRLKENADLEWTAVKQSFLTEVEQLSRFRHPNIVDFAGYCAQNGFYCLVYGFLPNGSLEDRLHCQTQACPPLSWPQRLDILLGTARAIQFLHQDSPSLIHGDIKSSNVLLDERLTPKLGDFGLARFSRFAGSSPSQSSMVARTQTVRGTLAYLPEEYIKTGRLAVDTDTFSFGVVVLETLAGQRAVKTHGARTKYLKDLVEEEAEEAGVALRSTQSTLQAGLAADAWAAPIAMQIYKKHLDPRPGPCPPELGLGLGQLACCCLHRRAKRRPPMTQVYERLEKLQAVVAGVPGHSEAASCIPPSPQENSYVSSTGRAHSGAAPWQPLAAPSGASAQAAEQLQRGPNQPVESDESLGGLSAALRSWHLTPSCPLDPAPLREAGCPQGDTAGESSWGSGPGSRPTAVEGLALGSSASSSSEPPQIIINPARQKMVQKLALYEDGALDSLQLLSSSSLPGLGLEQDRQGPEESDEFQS

[10] = target: Serine/threonine-protein kinase haspin (Homo sapiens) (UniProt Q8TF76); test: Inhibition of GSG2 (unknown origin) at 0.1 uM relative to control
[11] = target: Cyclin-C/Cyclin-dependent kinase 19 (Homo sapiens) (UniProt Q9BWU1+P24863); test: Inhibition of CDK11/cyclin C (unknown origin) at 0.1 uM relative to control; assay type: protein-complex assay
[12] = target: Interleukin-1 receptor-associated kinase 3 (Homo sapiens) (UniProt Q9Y616); test: Inhibition of IRAK3 (unknown origin) at 0.1 uM relative to control
[13] = target: CDK8/Cyclin C (Homo sapiens) (UniProt P49336+P24863); test: Inhibition of CDK8/cyclin C (unknown origin) at 0.1 uM relative to control; assay type: protein-complex assay
[14] = target: T4, Serine/threonine-protein kinase haspin (Homo sapiens, UniProt Q8TF76); test: Inhibition of GSG2 (unknown origin)
T4 sequence (Q8TF76 whole entry): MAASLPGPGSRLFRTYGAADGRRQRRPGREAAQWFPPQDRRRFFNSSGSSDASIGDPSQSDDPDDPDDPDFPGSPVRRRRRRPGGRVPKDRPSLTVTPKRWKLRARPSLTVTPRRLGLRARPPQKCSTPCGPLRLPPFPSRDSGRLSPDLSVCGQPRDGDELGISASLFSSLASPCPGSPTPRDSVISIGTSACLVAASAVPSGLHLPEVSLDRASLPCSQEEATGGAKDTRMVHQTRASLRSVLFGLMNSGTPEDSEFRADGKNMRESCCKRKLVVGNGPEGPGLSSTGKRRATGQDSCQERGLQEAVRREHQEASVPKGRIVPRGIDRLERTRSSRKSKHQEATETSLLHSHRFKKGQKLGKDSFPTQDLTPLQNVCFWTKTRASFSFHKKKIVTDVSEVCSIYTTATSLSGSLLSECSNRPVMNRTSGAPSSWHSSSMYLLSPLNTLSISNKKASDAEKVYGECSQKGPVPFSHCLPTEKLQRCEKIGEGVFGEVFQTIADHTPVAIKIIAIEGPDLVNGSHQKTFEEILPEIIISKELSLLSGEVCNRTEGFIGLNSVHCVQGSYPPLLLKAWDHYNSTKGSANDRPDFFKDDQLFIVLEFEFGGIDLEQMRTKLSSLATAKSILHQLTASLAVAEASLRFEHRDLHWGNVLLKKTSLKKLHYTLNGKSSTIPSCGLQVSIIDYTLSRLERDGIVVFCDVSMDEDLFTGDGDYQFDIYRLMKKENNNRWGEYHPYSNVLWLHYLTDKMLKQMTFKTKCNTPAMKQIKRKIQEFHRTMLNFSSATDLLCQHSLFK

[15] = Efflux ratio of apparent permeability in human Caco-2 cells
[16] = Intrinsic apparent permeability across apical to basolateral side in human Caco-2 cells

Activity [1]	IC50 [2]	IC50 [3]	logD [4]	Activity [5]	Activity [6]	DC50 [7]	IC50 [8]	IC50 [9]	inhibition [10]	inhibition [11]	inhibition [12]	inhibition [13]	IC50 [14]	efflux ratio [15]	Papp A→B [16]	Structure (SMILES)
inactive	> 1 µM	> 12 µM	3.7	inactive	inactive	> 10 µM	0.004 µM	3.4 µM	–	–	–	–	–	–	–	CC(C)c1ccn2ncnc(N[C@H]3CC[C@@H](N4CCN(C(=O)CCC(=O)N5CCC(CCN6CCN(c7ccc8c(c7)C(=O)N(C7CCC(=O)N(C)C7=O)C8=O)CC6)CC5)CC4)CC3)c12 (stereo partly specified)
–	–	–	–	–	–	–	0.006 µM	–	55%	51%	91%	39%	0.15 µM	–	–	CC(=O)N1CCN([C@H]2CC[C@@H](Nc3ncnn4ccc(C(C)C)c34)CC2)CC1
–	0.84 µM	–	2.3	–	–	–	0.004 µM	1.4 µM	–	–	–	–	–	4.3	12 ×10⁻⁶ cm/s	CC(=O)N1CCN([C@H]2CC[C@@H](Nc3ncnc4[nH]cc(C(C)C)c34)CC2)CC1
